Test results: patent publication US8980925B2, “Antimicrobial amphiphiles and methods for their use” (James Madison Innovations, Inc., priority 2010, dated 2015)

Legend:
[1] = test system: Entercoccus faecalis ATCC® 29212™; assay: Broth microdilution MIC and MBC, E. faecalis; type: cell-based; conditions: 37° C., 72 h, MBC and MIC values identical
Method: (§1) S. aureus and E. faecalis are Gram-positive pathogens, P. aeruginosa is a Gram-negative pathogen, and E. coli is a non-pathogenic Gram-negative organism.
(§2) The broth microdilution for determining the MIC and MBC of antimicrobial compounds was performed as previously described in Wayne, supra. Briefly, all compounds were serially diluted and 100 μl of each dilution was added to microtiter plate wells in triplicate. Overnight cultures of bacterial cells were diluted to a final inoculum of approximately 5×10^6 cfu/mL, and 100 μl of this suspension was added to all wells yielded 5×10^5 cfu/well. Cell concentrations and viability were verified by serial dilution and plating for each experiment. […] The MBC was determined as the lowest concentration of compound at which there were no colonies growing on the plate.
(§3) MIC values for the compounds of the invention were determined by the broth microdilution method as described herein. […] After microtiter plates were incubated and MICs determined, aliquots from each of the wells were placed on TSA plates and incubated to determine the MBC values for each of the compounds. The MBC was determined as the lowest concentration of compound at which there were no colonies growing on the plate. […] SDS was used for comparison in these studies.

[2] = test system: Escherichia coli ATCC® 25922™; conditions: 100 μM of compound; for time when all cells were killed, E. coli (G−): […]10^6 cfu/ml, room temperature, up to 72 h
Description: (§4) Bacterial strains Staphylococcus aureus subsp. aureus ATCC® 29213™, Entercoccus faecalis ATCC® 29212™, Escherichia coli ATCC® 25922™, and Pseudomonas aeruginosa strain Boston 41501 ATCC® 27853™ were obtained from the American type Culture Collection (ATCC, Manassas, Va., USA). S. aureus and E. faecalis are Gram-positive pathogens, P. aeruginosa is a Gram-negative pathogen, and E. coli is a non-pathogenic Gram-negative organism. All strains are reference strains for the Clinical and Laboratory Standards Institute (CLSI) for antimicrobial susceptibility testing of nonfastidious bacteria, and were grown in Mueller-Hinton broth at 37° C. as recommended (Wayne, Pa. National Committee for Clinical Laboratory Standards (2009) Methods for Dilution Antimicrobial Tests for Bacteria That Grow Aerobically—Approved Standard M07-A8).
(§5) Compounds were added to the cultures to a final concentration of 100 μM, and tubes were incubated at room temperature. […] Data reported are times when no colonies were observed growing on plates after overnight incubation.

[3] = test system: Entercoccus faecalis ATCC® 29212™; conditions: 100 μM of compound, […]10^6 cfu/ml, room temperature, up to 72 h
Description: as §4, §5

[4] = test system: Staphylococcus aureus subsp. aureus ATCC® 29213™; conditions: 100 μM of compound, […]10^6 cfu/ml, room temperature, up to 72 h
Description: as §4, §5

[5] = test system: Staphylococcus aureus subsp. aureus ATCC® 29213™; assay: Broth microdilution MIC and MBC, S. aureus; type: cell-based; conditions: 37° C., 72 h, MBC and MIC values identical
Method: as §1, §2, §3

[6] = test system: Pseudomonas aeruginosa strain Boston 41501 ATCC® 27853™; assay: Broth microdilution MIC and MBC, P. aeruginosa; type: cell-based; conditions: 37° C., 72 h, MBC and MIC values identical
Method: as §1, §2, §3

[7] = test system: Escherichia coli ATCC® 25922™; assay: Broth microdilution MIC and MBC, E. coli; type: cell-based; conditions: 37° C., 72 h, MBC and MIC values identical
Method: as §1, §2, §3

| Molecule | MICs and MBCs, E. faecalis (G+) [1] [µM] | time necessary to kill […]10^6 cfu/mL, E. coli [2] [min] | time when all cells were killed, E. coli (G−) [2] [h] | time when all cells were killed, E. faecalis (G+) [3] [h] | time when all cells were killed, S. aureus (G+) [4] [h] | MICs and MBCs, S. aureus (G+) [5] [µM] | MICs and MBCs, P. aeruginosa (G−) [6] [µM] | MICs and MBCs, E. coli (G−) [7] [µM] |
| --- | --- | --- | --- | --- | --- | --- | --- | --- |
| 1-hexadecyloxy-3,5-bis[(trimethlammonoum bromide)methyl]benzene [3,5-C16 (10)] | 31 | ≤ 15 | 0.25 | 0.25 | 0.25 | 16 | >63 | 63 |
| 1-tetradecyloxy-2,5-bis(4,4′-bipyridinium)benzene, bis-bromide salt [2,5-C14dipyr (41)] | 31 | – | – | – | – | 16 | 125 | 16 |
| CCCCCCCCCCCCOS(=O)(=O)[O-].[Na+] [SDS (13), SDS, reference compound] | 500 | – | – | – | – | 250 | >500 | >500 |
| [(2-tetradecyloxy-m-phenylene)dimethylene]bis[trimethylamonium bromide] [2,6-C14 (8)] | 50 | – | – | – | 48 | 16 | 500 | 125 |
| [(2-tetradecyloxy-o-phenylene)dimethylene]bis[trimethylamonium bromide] [2,3-C14 (1)] | 31 | – | 0.5 | 24 | 1 | 6 | 125 | 63 |
| [(5-tetradecyloxy-m-phenylene)dimethylene]bis[trimethylamonium bromide] [3,5-C14 (9)] | 31 | – | 1 | 1 | 1 | 8 | >63 | 31 |
| [(6-tetradecyloxy-m-phenylene)dimethylene]bis[trimethylamonium bromide] [2,4-C14 (2)] | 16 | – | 1 | 2 | 1 | 6 | 125 | 31 |
